{"source": "paper PMC5218480", "about": "(PLoS ONE, 2017)", "system": "MV-4-11 cells", "test": "Gene expression microarray analysis (Affymetrix PrimeView) and GSEA", "type": "cell-based, human", "parameters": "RFU PODN (11730768_x_at) / Fold change /veh PODN (11730768_x_at) / RFU LINC00158 (11744669_a_at) / Fold change /veh LINC00158 (11744669_a_at) / RFU DUSP10 (11751237_a_at) / Fold change /veh DUSP10 (11751237_a_at) / RFU ID3 (11757404_x_at) / Fold change /veh ID3 (11757404_x_at) / RFU PLEKHG5 (11737974_s_at) / Fold change /veh PLEKHG5 (11737974_s_at) / RFU LRRC4B (11730491_at) / Fold change /veh LRRC4B (11730491_at) / RFU GIMAP4 (11747438_a_at) / Fold change /veh GIMAP4 (11747438_a_at) / RFU KRT8 (11758183_x_at) / Fold change /veh KRT8 (11758183_x_at) / RFU CNN1 (11734310_a_at) / Fold change /veh CNN1 (11734310_a_at) / RFU VPS37D (11726825_at) / Fold change /veh VPS37D (11726825_at) / RFU C10orf10 (11716522_x_at) / Fold change /veh C10orf10 (11716522_x_at) / RFU KIR2DL2 /// KIR2DL4 /// KIR2DL5A /// KIR2DL5B /// KIR2DS1 /// KIR2DS2 /// KIR2DS3 /// KIR2DS4 /// KIR3DL3 /// KIR3DL3 /// KIR3DS1 (11738374_at) / Fold change /veh KIR2DL2 /// KIR2DL4 /// KIR2DL5A /// KIR2DL5B /// KIR2DS1 /// KIR2DS2 /// KIR2DS3 /// KIR2DS4 /// KIR3DL3 /// KIR3DL3 /// KIR3DS1 (11738374_at) / RFU C1QL1 (11718748_at) / Fold change /veh C1QL1 (11718748_at) / RFU TMPRSS4 (11747572_a_at) / Fold change /veh TMPRSS4 (11747572_a_at) / RFU HAMP (11756126_x_at) / Fold change /veh HAMP (11756126_x_at) / RFU RNFT2 (11725882_a_at) / Fold change /veh RNFT2 (11725882_a_at) / RFU NR4A2 (11747474_a_at) / Fold change /veh NR4A2 (11747474_a_at) / RFU ABCC12 (11746883_a_at) / Fold change /veh ABCC12 (11746883_a_at) / RFU TMEM136 (11760407_x_at) / Fold change /veh TMEM136 (11760407_x_at) / RFU CLDN22 /// WWC2 (11732394_at) / Fold change /veh CLDN22 /// WWC2 (11732394_at) / RFU HLA-DPB1 (11760878_x_at) / Fold change /veh HLA-DPB1 (11760878_x_at) / RFU SPINT1 (11716480_a_at) / Fold change /veh SPINT1 (11716480_a_at) / RFU GAP43 (11754022_s_at) / Fold change /veh GAP43 (11754022_s_at) / RFU A4GNT (11735810_at) / Fold change /veh A4GNT (11735810_at) / RFU PRB3 (11715151_x_at) / Fold change /veh PRB3 (11715151_x_at) / RFU TUBB4B (11761932_at) / Fold change /veh TUBB4B (11761932_at) / RFU CAPN14 (11732068_a_at) / Fold change /veh CAPN14 (11732068_a_at) / RFU TMCC2 (11721928_a_at) / Fold change /veh TMCC2 (11721928_a_at) / RFU IRGQ (11745062_a_at) / Fold change /veh IRGQ (11745062_a_at) / RFU FAM174B (11720279_a_at) / Fold change /veh FAM174B (11720279_a_at) / RFU TMPRSS4 (11748680_a_at) / Fold change /veh TMPRSS4 (11748680_a_at) / RFU FAM212B (11763350_a_at) / Fold change /veh FAM212B (11763350_a_at) / RFU PLEKHG5 (11743358_a_at) / Fold change /veh PLEKHG5 (11743358_a_at) / RFU ZSCAN30 (11745921_a_at) / Fold change /veh ZSCAN30 (11745921_a_at) / RFU CMKLR1 (11741424_a_at) / Fold change /veh CMKLR1 (11741424_a_at) / RFU LOC101060620 /// MAPK8IP1 (11723275_at) / Fold change /veh LOC101060620 /// MAPK8IP1 (11723275_at) / RFU SPTSSB (11747773_x_at) / Fold change /veh SPTSSB (11747773_x_at) / RFU PRSS12 (11739890_at) / Fold change /veh PRSS12 (11739890_at) / RFU BIN1 (11741810_x_at) / Fold change /veh BIN1 (11741810_x_at) / RFU WNT11 (11732464_a_at) / Fold change /veh WNT11 (11732464_a_at) / RFU C10orf10 (11716521_a_at) / Fold change /veh C10orf10 (11716521_a_at) / RFU C5orf56 (11738089_at) / Fold change /veh C5orf56 (11738089_at) / RFU CYB561 (11721691_x_at) / Fold change /veh CYB561 (11721691_x_at) / RFU ANKRD19P (11752326_a_at) / Fold change /veh ANKRD19P (11752326_a_at) / RFU OR2T12 /// OR2T33 /// OR2T8 (11738714_s_at) / Fold change /veh OR2T12 /// OR2T33 /// OR2T8 (11738714_s_at) / RFU VCAN (11748164_a_at) / Fold change /veh VCAN (11748164_a_at) / RFU JSRP1 (11732532_at) / Fold change /veh JSRP1 (11732532_at) / RFU KRTAP10-11 (11738290_x_at) / Fold change /veh KRTAP10-11 (11738290_x_at) / RFU MYO3A (11730013_a_at) / Fold change /veh MYO3A (11730013_a_at) / RFU EBF3 (11725865_a_at) / Fold change /veh EBF3 (11725865_a_at) / RFU CAMK2N1 (11719241_x_at) / Fold change /veh CAMK2N1 (11719241_x_at) / RFU C5orf56 (11738088_a_at) / Fold change /veh C5orf56 (11738088_a_at) / RFU OLFML3 (11715873_a_at) / Fold change /veh OLFML3 (11715873_a_at) / RFU LOC100653217 /// NTM (11731650_a_at) / Fold change /veh LOC100653217 /// NTM (11731650_a_at) / RFU MAPK11 (11762145_a_at) / Fold change /veh MAPK11 (11762145_a_at) / RFU FIZ1 (11724087_x_at) / Fold change /veh FIZ1 (11724087_x_at) / RFU OASL (11726364_x_at) / Fold change /veh OASL (11726364_x_at) / RFU SOX15 (11748057_x_at) / Fold change /veh SOX15 (11748057_x_at) / RFU CD79A (11719716_a_at) / Fold change /veh CD79A (11719716_a_at) / RFU HIST1H1D (11736915_at) / Fold change /veh HIST1H1D (11736915_at) / RFU CASKIN2 (11723855_a_at) / Fold change /veh CASKIN2 (11723855_a_at) / RFU LOC730098 (11760151_x_at) / Fold change /veh LOC730098 (11760151_x_at) / RFU OR4N2 (11742367_at) / Fold change /veh OR4N2 (11742367_at) / RFU PRRT2 (11749266_a_at) / Fold change /veh PRRT2 (11749266_a_at) / RFU SNX32 (11753110_a_at) / Fold change /veh SNX32 (11753110_a_at) / RFU CDHR5 (11726645_a_at) / Fold change /veh CDHR5 (11726645_a_at) / RFU RCAN1 (11760418_a_at) / Fold change /veh RCAN1 (11760418_a_at) / RFU FAM167A (11723789_a_at) / Fold change /veh FAM167A (11723789_a_at) / RFU FAM26E (11764081_at) / Fold change /veh FAM26E (11764081_at) / RFU ISYNA1 (11749810_s_at) / Fold change /veh ISYNA1 (11749810_s_at) / RFU ACY1 (11761880_at) / Fold change /veh ACY1 (11761880_at) / RFU 11764098_at / Fold change /veh 11764098_at / RFU SAMD14 (11745864_x_at) / Fold change /veh SAMD14 (11745864_x_at) / RFU NPB (11741838_a_at) / Fold change /veh NPB (11741838_a_at) / RFU TMPRSS6 (11731388_a_at) / Fold change /veh TMPRSS6 (11731388_a_at) / RFU KRTAP10-2 (11738614_at) / Fold change /veh KRTAP10-2 (11738614_at) / RFU ARHGAP8 /// PRR5-ARHGAP8 (11727945_x_at) / Fold change /veh ARHGAP8 /// PRR5-ARHGAP8 (11727945_x_at) / RFU KRTAP5-7 /// NADSYN1 (11734609_at) / Fold change /veh KRTAP5-7 /// NADSYN1 (11734609_at) / RFU RASL12 (11751679_a_at) / Fold change /veh RASL12 (11751679_a_at) / RFU CDKN2B (11736163_a_at) / Fold change /veh CDKN2B (11736163_a_at) / RFU PRF1 (11729649_at) / Fold change /veh PRF1 (11729649_at) / RFU, ZNF638 /// ZNF638-IT1 / Fold change vs veh, ZNF638 /// ZNF638-IT1 / RFU, PANK3 / Fold change vs veh, PANK3 / RFU, SH3YL1 / Fold change vs veh, SH3YL1 / RFU, ZEB2 / Fold change vs veh, ZEB2 / RFU, NRIP1 / Fold change vs veh, NRIP1 / RFU, PTTG1IP / Fold change vs veh, PTTG1IP / RFU, CAPN2 / Fold change vs veh, CAPN2 / RFU, MED14 / Fold change vs veh, MED14 / RFU, SNORA58 / Fold change vs veh, SNORA58 / RFU, C1orf63 / Fold change vs veh, C1orf63 / RFU, LRRFIP1 / Fold change vs veh, LRRFIP1 / RFU, NDUFAF7 / Fold change vs veh, NDUFAF7 / RFU, SLC12A2 / Fold change vs veh, SLC12A2 / RFU, IBTK / Fold change vs veh, IBTK / RFU, ESF1 / Fold change vs veh, ESF1 / Fold change vs veh, TMEM50B / RFU, TAOK1 / Fold change vs veh, TAOK1 / RFU, ACBD3 / Fold change vs veh, ACBD3 / RFU, TMA16 / Fold change vs veh, TMA16 / RFU, RWDD3 / Fold change vs veh, RWDD3 / RFU, BCAT1 / Fold change vs veh, BCAT1 / RFU, EDEM3 / Fold change vs veh, EDEM3 / RFU, TMEM33 / Fold change vs veh, TMEM33 / RFU, WDR75 / Fold change vs veh, WDR75 / RFU, AHCTF1 / Fold change vs veh, AHCTF1 / RFU, TFRC / Fold change vs veh, TFRC / RFU, ZDHHC17 / Fold change vs veh, ZDHHC17 / RFU, NOM1 / Fold change vs veh, NOM1 / RFU, ARL8B / Fold change vs veh, ARL8B / RFU, ZBTB11 / Fold change vs veh, ZBTB11 / RFU, TAMM41 / Fold change vs veh, TAMM41 / RFU, KIAA1704 /// LOC100996395 / Fold change vs veh, KIAA1704 /// LOC100996395 / RFU, ING1 / Fold change vs veh, ING1 / RFU, TRMT61B / Fold change vs veh, TRMT61B / RFU, FUBP3 / Fold change vs veh, FUBP3 / RFU, TP53 / Fold change vs veh, TP53 / RFU, TNKS2 / Fold change vs veh, TNKS2 / RFU, ZFP14 / Fold change vs veh, ZFP14 / RFU, ACTR2 / Fold change vs veh, ACTR2 / RFU, PPP3R1 / Fold change vs veh, PPP3R1 / RFU, PIK3R1 / Fold change vs veh, PIK3R1 / RFU, HNRNPA1 / Fold change vs veh, HNRNPA1 / RFU, RNF170 / Fold change vs veh, RNF170 / RFU, ZNF28 / Fold change vs veh, ZNF28 / RFU, RNGTT / Fold change vs veh, RNGTT / RFU, OGT / Fold change vs veh, OGT / RFU, BRD1 / Fold change vs veh, BRD1 / RFU, MARS / Fold change vs veh, MARS / RFU, ZNF655 / Fold change vs veh, ZNF655 / RFU, FAHD1 / Fold change vs veh, FAHD1 / RFU, BDP1 / Fold change vs veh, BDP1 / RFU, LRRCC1 / Fold change vs veh, LRRCC1 / RFU, ARID1A / Fold change vs veh, ARID1A / RFU, ZNF146 / Fold change vs veh, ZNF146 / RFU, ZNF330 / Fold change vs veh, ZNF330 / RFU, GPN3 / Fold change vs veh, GPN3 / RFU, C9orf123 / Fold change vs veh, C9orf123 / RFU, N4BP2L2 / Fold change vs veh, N4BP2L2 / RFU, ARFIP1 / Fold change vs veh, ARFIP1 / RFU, FAM179B / Fold change vs veh, FAM179B / RFU, BCL10 / Fold change vs veh, BCL10 / RFU, UHRF1BP1L / Fold change vs veh, UHRF1BP1L / RFU, BET1 / Fold change vs veh, BET1 / RFU, CNOT2 / Fold change vs veh, CNOT2 / RFU, ZNF268 / Fold change vs veh, ZNF268 / Fold change vs veh, ZNF507 / RFU, DGCR2 / Fold change vs veh, DGCR2 / RFU, WDSUB1 / Fold change vs veh, WDSUB1 / Fold change vs veh, HSP90B1 /// MIR3652 / RFU, ADSS / Fold change vs veh, ADSS / RFU, GK / Fold change vs veh, GK / RFU, ZNF148 / Fold change vs veh, ZNF148 / RFU, TAF9 / Fold change vs veh, TAF9 / RFU, SLC1A5 / Fold change vs veh, SLC1A5 / RFU, SLMO2 / Fold change vs veh, SLMO2 / RFU, ABCC4 / Fold change vs veh, ABCC4 / RFU, LOC101060439 /// RAP1B / Fold change vs veh, LOC101060439 /// RAP1B / RFU, RFX7 / Fold change vs veh, RFX7 / RFU, GTPBP10 / Fold change vs veh, GTPBP10 / RFU, CNEP1R1 / Fold change vs veh, CNEP1R1 / RFU, BIVM-ERCC5 /// ERCC5 / Fold change vs veh, BIVM-ERCC5 /// ERCC5 / RFU, ILF3 / Fold change vs veh, ILF3 / RFU 11762660_at / Fold change /veh 11762660_at / RFU VCAN (11757783_s_at) / Fold change /veh VCAN (11757783_s_at) / RFU DDX43 (11728927_at) / Fold change /veh DDX43 (11728927_at) / RFU KRT8 (11758188_x_at) / Fold change /veh KRT8 (11758188_x_at) / RFU NKD1 (11759106_at) / Fold change /veh NKD1 (11759106_at) / RFU SRD5A1 (11742802_a_at) / Fold change /veh SRD5A1 (11742802_a_at) / RFU TPSAB1 /// TPSB2 (11721975_s_at) / Fold change /veh TPSAB1 /// TPSB2 (11721975_s_at) / RFU GSTM3 (11746129_a_at) / Fold change /veh GSTM3 (11746129_a_at) / RFU IL23R (11737362_x_at) / Fold change /veh IL23R (11737362_x_at) / RFU TMEM51 (11727254_a_at) / Fold change /veh TMEM51 (11727254_a_at) / RFU PIWIL2 (11732686_x_at) / Fold change /veh PIWIL2 (11732686_x_at) / RFU ORM1 (11744905_x_at) / Fold change /veh ORM1 (11744905_x_at) / RFU CCDC152 (11743942_at) / Fold change /veh CCDC152 (11743942_at) / RFU ECM1 (11717891_a_at) / Fold change /veh ECM1 (11717891_a_at) / RFU IL23R (11748794_a_at) / Fold change /veh IL23R (11748794_a_at) / RFU TNFAIP8L3 (11732012_x_at) / Fold change /veh TNFAIP8L3 (11732012_x_at) / RFU MBOAT4 (11741988_at) / Fold change /veh MBOAT4 (11741988_at) / RFU 11764193_at / Fold change /veh 11764193_at / RFU TMEM53 (11763286_at) / Fold change /veh TMEM53 (11763286_at) / RFU MAGEB2 (11727129_at) / Fold change /veh MAGEB2 (11727129_at) / RFU TMEM200A (11744735_a_at) / Fold change /veh TMEM200A (11744735_a_at) / RFU CCDC152 (11751479_a_at) / Fold change /veh CCDC152 (11751479_a_at) / RFU FAM211A (11726209_a_at) / Fold change /veh FAM211A (11726209_a_at) / RFU RGS16 (11746705_a_at) / Fold change /veh RGS16 (11746705_a_at) / RFU VCAN (11755009_s_at) / Fold change /veh VCAN (11755009_s_at) / RFU RHOB (11743442_s_at) / Fold change /veh RHOB (11743442_s_at) / RFU RGS16 (11720943_a_at) / Fold change /veh RGS16 (11720943_a_at) / RFU RGS16 (11720944_at) / Fold change /veh RGS16 (11720944_at) / RFU, VPS4B / Fold change vs veh, VPS4B / RFU, CREB1 / Fold change vs veh, CREB1 / RFU, DNAJC13 / Fold change vs veh, DNAJC13 / RFU, GNAQ / Fold change vs veh, GNAQ / RFU, CDK5R1 / Fold change vs veh, CDK5R1 / RFU, ZRANB3 / Fold change vs veh, ZRANB3 / RFU, CUL4A / Fold change vs veh, CUL4A / RFU, CCNY / Fold change vs veh, CCNY / RFU, UFL1 / Fold change vs veh, UFL1 / RFU, COG3 / Fold change vs veh, COG3 / RFU, DIAPH2 / Fold change vs veh, DIAPH2 / RFU, SKA2 / Fold change vs veh, SKA2 / RFU, AFF3 / Fold change vs veh, AFF3 / RFU, LMF1 / Fold change vs veh, LMF1 / RFU, IPO11 / Fold change vs veh, IPO11 / RFU, DFFB / Fold change vs veh, DFFB / RFU, FOXP1 / Fold change vs veh, FOXP1 / RFU, CARD8 / Fold change vs veh, CARD8 / RFU, STRN3 / Fold change vs veh, STRN3 / RFU, ADK / Fold change vs veh, ADK / RFU, RASSF2 / Fold change vs veh, RASSF2 / RFU, WIPF1 / Fold change vs veh, WIPF1 / RFU, LARP1B / Fold change vs veh, LARP1B / RFU, RASA1 / Fold change vs veh, RASA1 / RFU, RB1 / Fold change vs veh, RB1 / RFU, PPFIA1 / Fold change vs veh, PPFIA1 / RFU, MAT2A / Fold change vs veh, MAT2A / RFU, CCT5 / Fold change vs veh, CCT5 / RFU, WDR92 / Fold change vs veh, WDR92 / RFU, CUX1 / Fold change vs veh, CUX1 / RFU, TTC7A / Fold change vs veh, TTC7A / RFU, TMEM135 / Fold change vs veh, TMEM135 / RFU, DEPTOR / Fold change vs veh, DEPTOR / RFU, CPM / Fold change vs veh, CPM / RFU, DNAJB6 / Fold change vs veh, DNAJB6 / RFU, CACNA2D3 / Fold change vs veh, CACNA2D3 / RFU, DTX4 / Fold change vs veh, DTX4 / RFU, TFCP2 / Fold change vs veh, TFCP2 / RFU, GMCL1 /// GMCL1P1 / Fold change vs veh, GMCL1 /// GMCL1P1 / RFU, AEBP2 / Fold change vs veh, AEBP2 / RFU, SNHG1 /// SNORD22 /// SNORD25 /// SNORD26 /// SNORD27 /// SNORD28 /// SNORD29 /// SNORD31 / Fold change vs veh, SNHG1 /// SNORD22 /// SNORD25 /// SNORD26 /// SNORD27 /// SNORD28 /// SNORD29 /// SNORD31 / Fold change (Aza/veh), C12orf56 (ProbeSet 11735607_a_at) / Fold change (ACY-1035/veh), C12orf56 (ProbeSet 11735607_a_at) / Fold change (Aza/veh), FGFR1OP (ProbeSet 11751329_s_at) / Fold change (ACY-1035/veh), FGFR1OP (ProbeSet 11751329_s_at) / Fold change (Aza/veh), VPS36 (ProbeSet 11739960_a_at) / Fold change (ACY-1035/veh), VPS36 (ProbeSet 11739960_a_at) / RFU SYPL1 (11715823_x_at) / Fold change /veh SYPL1 (11715823_x_at) / RFU IGFBP7 (11715501_s_at) / Fold change /veh IGFBP7 (11715501_s_at) / RFU REEP3 (11722064_at) / Fold change /veh REEP3 (11722064_at) / RFU IGLL1 (11728026_x_at) / Fold change /veh IGLL1 (11728026_x_at): dose or concentration left out as unconfirmed", "conditions": "ProbeSet 11722463_a_at; LIST B"}
{"smiles": "Nc1ccc(-c2cccs2)cc1NC(=O)c1ccc2c(c1)cc(C1CC1)n2CCN1CCOCC1", "note": "[ACY-1035]", "values": [{"measurement": "RFU, TNKS2", "value": 53.51, "unit": "RFU"}]}
